We go through two molecules from article PMC7118210 (Frontiers in Pharmacology, 2020).

Data set [1] can be described thus: Excretion in human urine and feces (mass balance). It counts as in vivo. Conditions: for time within which excreted: humans. On the procedure:
All blood samples were transferred into heparin-treated centrifuge tubes and centrifuged for 10 min at 4,000 rpm and 4°C. All human urine samples were mixed and transferred (4 ml) into storage tubes. All biological samples were stored at −80°C.
The optimal volume and activity in unit volume of enzyme solution [0.2 M acetic acid/water solution: 0.2 M ammonium acetate/water solution, 15:35 (v/v)] were determined through a pretest of the enzyme (rat plasma, 10 μl, 10 U μl^-1; dog plasma, 10 μl, 10 U μl^-1; human plasma, 20 μl, 20 U μl^-1; human urine, 10 μl, 10 U μl^-1). […] To each fecal sample, 9-fold methanol-normal saline (2:1, v/v) was added, mixed (18,000 rpm, 15 min) by vortexing and centrifuged (10 min, 9,000 rpm, 4°C). […] Then, all plasma, urine, and fecal samples were extracted with ethyl acetate (rat plasma, 800 μl; dog plasma, 1,000 μl; human plasma, 3,000 μl; human urine, 3,000 μl; human feces, 3,000 μl) for at least 3 min by vortexing, centrifuged for 10 min at 3,900 rpm and 4°C; supernatants were transferred into centrifuge tubes and dried with N2. The solid material was dissolved with acetonitrile-water (1:1, v/v) and injected into the ultra high-performance liquid chromatography coupled with triple quadrupole mass spectrometry (UHPLC/MS/MS) system as described below.
The analysis of nonclinical and clinical samples was performed with a UHPLC/MS/MS system that consisted of a Shimadzu Nexera X2 ultra high-performance liquid chromatography (UHPLC) (Shimadzu Corp., Kyoto, Japan) coupled with an AB Sciex API4000 triple-quadrupole mass spectrometry (MS/MS) system (AB Sciex, Foster City, CA, USA) equipped with an electrospray ionization source and controlled by Analyst (v. 1.6.2) software. […] The mobile phase consisted of 0.1% formic acid (v/v) in water (A) and 0.1% formic acid in acetonitrile (B) using a linear gradient of 90% A (0–0.5 min), 90 to 60% A (0.5–1.5 min), 60% to 40% A (1.5–3.5 min), 40% to 10% A (3.5–4.5 min), 10% A (4.5–5.5 min), 10% to 90% A (5.5–6.0 min), and 90% A (6.0–7.5 min) for plasma; and 80% A (0–0.2 min), 80 to 64% A (0.2–2.0 min), 64% to 63% A (2.0–4.4 min), 63% to 0% A (4.4–4.5 min), 0% A (4.5–5.5 min), 0% to 90% A (5.5–5.6 min), 90% A (5.6–5.9 min), 90% to 35% A (5.9–6.0 min), 35% A (6.0–6.2 min), 35 to 80% A (6.2–6.3 min), and 80% A (6.3–7.5 min) for urine and feces. The injection volume was 10 μl with the flow rate of 0.3 ml min^-1 for plasma, and 0.4 ml min^-1 for urine and feces. The compounds were detected by multiple reaction monitoring in the negative ion electrospray mode. The electrospray source conditions were as follows: ion source gas1 30 psi, ion source gas2 60 psi, curtain gas 20 psi, collisionally activated dissociation (CAD) gas 8 psi, temperature 500°C, and ion spray voltage −4,500 V. Zero air was used for ion source gas1 and ion source gas2 and nitrogen for curtain gas and CAD gas.
Next, 9-fold normal saline, instead of ninefold methanol-normal saline (2:1, v/v), was added to maintain enzyme activity in the feces. […] These samples were maintained at 37°C for 12 h.

For data set [2] the following is noted: cited from earlier work.
[3] abbreviates: naringin 160 mg, three times a day, p.o., human.
Where [4] appears, read: naringin 160 mg (high-fat diet) p.o., human.

Where two headings read alike, the source gives them in different places.

For `O=C1C[C@@H](c2ccc(O)cc2)Oc2cc(O)cc(O)c21` [naringenin, Naringenin], in data set [1], the “time within which excreted” value is listed as no more than 48 h. Also, in data set [1] (setting [3]), the “cumulative excretion in feces, Naringenin” value was 1.83 ± 2.32 % of dose and the “cumulative excretion in urine, Naringenin” value is reported as 28.3 ± 43.2 % of dose. Further, the “time within which excreted” value in data set [2] (rats, ref Liu M. et al., 2012) is listed as no more than 24 h.

Take `C[C@@H]1O[C@@H](O[C@H]2[C@H](Oc3cc(O)c4c(c3)O[C@H](c3ccc(O)cc3)CC4=O)O[C@H](CO)[C@@H](O)[C@@H]2O)[C@H](O)[C@H](O)[C@H]1O` [naringin, Naringin]: the “time within which excreted” value was no more than 48 h in data set [1] and no more than 24 h in data set [2] (rats, ref Liu M. et al., 2012). Besides, the “cumulative excretion in feces, Naringin” value in data set [1] (naringin 40 mg p.o., human) is 0.122 ± 0.202 % of dose; in data set [1] (naringin 80 mg p.o., human), 0.023 ± 0.036 % of dose; in data set [1] (setting [4]), 9.85 ± 20.0 % of dose; in data set [1] (naringin 160 mg p.o., human) it was 0.016 ± 0.023 % of dose; in data set [1] (setting [3]), 0.563 ± 1.00 % of dose; in data set [1] (naringin 320 mg p.o., human), 0.126 ± 0.325 % of dose. The “cumulative excretion in feces, Naringin” value in data set [1] (naringin 480 mg p.o., human) was 0.023 ± 0.033 % of dose. For the same molecule, the “cumulative excretion in urine, Naringin” value is reported as 0.067 ± 0.039 % of dose in data set [1] (naringin 40 mg p.o., human); 0.037 ± 0.013 % of dose in data set [1] (naringin 80 mg p.o., human); 0.025 ± 0.008 % of dose in data set [1] (setting [4]); 0.027 ± 0.014 % of dose in data set [1] (naringin 160 mg p.o., human); 0.034 ± 0.014 % of dose in data set [1] (setting [3]); 0.033 ± 0.026 % of dose in data set [1] (naringin 320 mg p.o., human). For the same molecule, the “cumulative excretion in urine, Naringin” value in data set [1] (naringin 480 mg p.o., human) is reported as 0.012 ± 0.004 % of dose. Also, the cumulative excretion percentage in data set [2] (aged rats, in the forms of naringin and naringenin, ref Zeng et al., 2019) was 19%; in data set [2] (aged rats, in the forms of naringin, naringenin, and 4-hydroxyphenylpropionic acid, ref Zeng et al., 2019), 98%; in data set [2] (rats, in the forms of naringin, naringenin, and 4-hydroxyphenylpropionic acid, ref Liu M. et al., 2012), 21%.
